79 compounds from the METLIN SMRT retention time set (Domingo-Almenara et al. 2019) can be followed below.

A short description of this data set: gradient 5% acetonitrile 3 min, to 50% in 2 min, to 85% in 15 min, held 3 min, 100 µL/min. Particulars: column: Zorbax Extend-C18 2.1 x 50 mm; eluents: water / acetonitrile, 0.1% formic acid. In short, it runs like this:
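The mobile phases were water and acetonitrile, each with 0.1% formic acid, pumped at 100 μL/min through a Zorbax Extend-C18 column (2.1 × 50 mm, 1.8 μm). Pure standards were injected as mixtures of ~100 molecules and detected by a quadrupole time-of-flight mass spectrometer in positive and negative ionization mode. Retention time came from computationally picked adduct peaks, each inspected by hand.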
For the compound `Cc1nc(-c2csc(S(=O)(=O)N3CCC(C(=O)Nc4ccc(Cl)cc4)CC3)c2)no1`, the RP-LC retention time came to 986 s.

Turning to `CN1C(=O)c2cccnc2Sc2cc(C(=O)NCc3ccc(Cl)cc3)ccc21`, the RP-LC retention time stood at 812 s.

With `Cc1ccn2c(Nc3ccc4c(c3)OCO4)c(-c3ccc(N(C)C)cc3)nc2c1`, the RP-LC retention time was found to be 734 s.

`O=C(Nc1ccc(Cl)c(N2CCCS2(=O)=O)c1)c1ccno1`: the RP-LC retention time is 676 s.

Regarding `Cc1nnc(-c2cn(CC(=O)NCCCc3ccccc3)c3ccccc23)o1`, the RP-LC retention time was determined as 827 s.

For `Cc1nc2cc(N3CC(C(=O)Nc4ccc(Cl)cc4F)CC3=O)ccc2o1` (centres undefined), the RP-LC retention time was found to be 787 s.

In turn, `Cc1ccc(-c2noc(CSc3nc4cc5c(cc4c(=O)n3CC3CCCO3)OCO5)n2)cc1` (centres undefined) had an RP-LC retention time of 1160 s.

`O=c1c(=O)n(-c2cccc(Cl)c2)ccn1Cc1nc(-c2cccc(F)c2)no1` returned an RP-LC retention time of 895 s.

In the case of `O=C(NCCN1CCCC1)C1CCCN(c2ccc(Sc3ccc(Br)cc3)nn2)C1` (centres undefined), the RP-LC retention time stood at 663 s.

For the compound `COc1cc(/C=C2\CCCN([C@@H](C)c3ccc(F)cc3)C2=O)ccc1-n1cnc(C)c1`, the RP-LC retention time was found to be 834 s.

In turn, `Cc1noc(-c2cc(=O)n(CC(=O)NCc3ccc(F)cc3Cl)c3ccccc23)n1` returned an RP-LC retention time of 891 s.

Consider `CCN1CCN(CCCNC(=O)C2CCCN(c3nc4cccnc4s3)C2)CC1` (centres undefined), for which the RP-LC retention time was 552 s.

Take `CCOC(=O)C1CCCN(C(=O)c2cn(-c3cc(N4CCSCC4)ncn3)cn2)C1` (centres undefined): the RP-LC retention time was 802 s.

The compound `O=c1c2cc(-c3cccc4ccccc34)nn2ccn1Cc1nc(-c2ccccc2)no1` returned an RP-LC retention time of 1140 s.

In turn, `CCNC(=O)N1CCC(CCOc2cccnc2)CC1` registered an RP-LC retention time of 579 s.

Turning to `Cc1ccc(Cn2c(C(=O)NCCc3ccccc3)cc3sccc32)cc1`, the RP-LC retention time worked out at 1180 s.

Compound `O=C(c1ccco1)N1CCCn2cc(-c3ccccc3F)nc21` registered an RP-LC retention time of 639 s.

The compound `CCC1(C(=O)Nc2ccc(C)c(F)c2)CCCCC(=O)N1` (centres undefined) registered an RP-LC retention time of 771 s.

Compound `Cc1ccc(CNC(=O)c2sc(Nc3ccc(F)cn3)nc2C)cc1` yielded an RP-LC retention time of 859 s.

For the compound `Cn1cc(-c2noc(-c3cccs3)n2)ccc1=O`, the RP-LC retention time was 778 s.

With `CC(C)NC(=O)c1ccc(OCC2CCCN(C(=O)c3cccs3)C2)cc1` (centres undefined), the RP-LC retention time was found to be 818 s.

Consider `CCc1ccc(NC(=O)N2CCc3nc(-c4ccc(OC)cc4)ncc3C2)cc1`, for which the RP-LC retention time was found to be 995 s.

For `CN1CCC2(CCN3CCc4c(oc5ccccc45)C3C2)N(C)C1=O` (centres undefined), the RP-LC retention time worked out at 615 s.

On to `COc1ccc(-c2cc(C(=O)Nc3cc(Cl)ccc3C)no2)cc1`, for which the RP-LC retention time came out at 1150 s.

`CC1(C)CC(=O)c2c(O)cc(OCC(=O)O)cc2O1` returned an RP-LC retention time of 738 s.

Turning to `Cc1nn(C)c(C)c1CNC(=O)C1CC(=O)N(c2n[nH]c3cccc(F)c23)C1` (centres undefined), the RP-LC retention time was 594 s.

`Cn1nc(CO)c2c1CCN(C(=O)c1cc(-c3cccs3)[nH]n1)C2` had an RP-LC retention time of 602 s.

`Cc1ccc(C)c(N2CCN(c3ccnc(SCC(=O)Nc4ccccc4)n3)CC2)c1` returned an RP-LC retention time of 860 s.

Take `Cc1c(-c2ccc(Cl)cc2)noc1C1CCN(CCc2ccccc2)CC1`: the RP-LC retention time was found to be 922 s.

Consider `COc1cccc(CNC(=O)C2(C)Oc3cccnc3N(C)C2=O)c1` (centres undefined), for which the RP-LC retention time stood at 748 s.

For `Cc1nn(C)c(=O)c2cc(S(=O)(=O)N3CCC(Cc4ccccc4)CC3)cn12`, the RP-LC retention time is 943 s.

Compound `CCc1nc2cc3c(cc2n1CC(=O)Nc1ccccc1OC)OCCO3` returned an RP-LC retention time of 627 s.

`CCOC(=O)c1c(C)oc2nc(C)nc(NCCc3ccc(C)cc3)c12`: the RP-LC retention time was 1330 s.

In the case of `CC(NC(=O)c1ccc2c(c1)OCO2)C(=O)Nc1nc2ccccc2[nH]1` (centres undefined), the RP-LC retention time was 623 s.

Regarding `Cn1c(=O)n([C@H]2CCN(S(=O)(=O)c3ccccc3Cl)C2)c2ncccc21`, the RP-LC retention time came out at 840 s.

`CCOc1ccccc1CN1CCO[C@@H](COC)[C@@H]1c1ccccc1` displayed an RP-LC retention time of 699 s.

`Cc1ccccc1CNC(=O)C1(C)CCCN(C(=O)Nc2ccccc2Cl)C1` (centres undefined): the RP-LC retention time was 1010 s.

`CCOC(=O)c1noc2nc(C)nc(Nc3ccc(CC)cc3)c12` yielded an RP-LC retention time of 1160 s.

`CC(C)COc1cc(=O)n2c(c1C(=O)NC1CCCCC1)CCCCC2`: the RP-LC retention time turned out to be 842 s.

`CNC(=O)C1CCCN(c2nc3ncn(CC(=O)Nc4ccc(F)cc4F)c(=O)c3s2)C1` (centres undefined): the RP-LC retention time turned out to be 635 s.

`O=C(Nc1ccccc1)N1CCC(CCNC(=O)C2(c3ccccc3)CC2)CC1`: the RP-LC retention time was determined as 882 s.

In turn, `Cc1ccc(S(=O)(=O)N2CCC(CC(=O)NC(C)Cc3ccco3)CC2)cc1` (centres undefined) displayed an RP-LC retention time of 907 s.

In turn, `CC1=C(c2ccc(Cl)cc2)S(=O)(=O)N=C1N1CCCN(C(=O)c2ccco2)CC1` showed an RP-LC retention time of 823 s.

With `COc1ccc(N2CCN(C(=O)C3CCCN(c4nnc(-n5cccc5)s4)C3)CC2)cc1` (centres undefined), the RP-LC retention time is 829 s.

Regarding `COc1ccc2ncc(C(=O)c3ccc(C)cc3)c(N3CCN(C)CC3)c2c1`, the RP-LC retention time came to 582 s.

`CCCOC(=O)c1ccc(Nc2nc(C(=O)OCC)nc3ccccc23)cc1`: the RP-LC retention time was determined as 1020 s.

In the case of `Cc1cccn2c(=O)cc(OCC(=O)Nc3ccc(SC(F)F)cc3)nc12`, the RP-LC retention time came to 771 s.

As to `O=c1n(Cc2c(F)cccc2Cl)nc2ccc(S(=O)(=O)N3CCCCCC3)cn12`, the RP-LC retention time turned out to be 996 s.

The compound `O=c1ccc(-c2nc(-c3ccncc3)no2)nn1Cc1cccc(Br)c1` displayed an RP-LC retention time of 919 s.

With `COc1cccc(-n2c(=O)c(C(=O)NCCc3cccs3)c(O)c3cccnc32)c1`, the RP-LC retention time was 1160 s.

The compound `Cc1ccc(Cn2c(N3CCCC(C(=O)NC4CCCCC4)C3)nc3ccsc3c2=O)cc1` (centres undefined) gave an RP-LC retention time of 1020 s.

For the compound `Cc1cc(C(F)(F)F)nn1CC(=O)N1CCc2nn(C)c(=O)n2CC1`, the RP-LC retention time stood at 659 s.

Compound `CCOC(=O)C1CCN(c2cc(-c3nc(-c4ccccc4)no3)c3ccccc3n2)CC1` returned an RP-LC retention time of 1370 s.

Regarding `Cc1nn(CCCC(=O)NCc2ccc3c(c2)OCO3)c(=O)c2nn(-c3ccccc3)c(C)c12`, the RP-LC retention time came to 704 s.

Compound `O=C(NCc1ccncc1)C1CCCN(c2ccc(Sc3ccc(Br)cc3)nn2)C1` (centres undefined) registered an RP-LC retention time of 653 s.

On to `Cn1cccc1C(=O)C(=O)Nc1cccc2c1CCCC2`, for which the RP-LC retention time came to 928 s.

For the compound `Cc1ccc(Nc2c(-c3cc(Br)ccc3O)nc3ncccn23)c(C)c1`, the RP-LC retention time worked out at 1120 s.

For `O=C(COc1ccc(Cl)cc1Cl)N1CCN(c2ccc3nncn3n2)CC1`, the RP-LC retention time is 687 s.

On to `CCOc1ccc(-c2csc(Nc3ccc(C)cn3)n2)cc1`, for which the RP-LC retention time was found to be 949 s.

`Cc1sc(NC(=O)c2ccccc2Cl)nc1-c1ccc2c(c1)NC(=O)C(C)O2` (centres undefined) had an RP-LC retention time of 914 s.

In turn, `CCC(C(=O)N1CCN(c2ccc(-c3ccc4c(c3)OCO4)nn2)CC1)c1ccccc1` (centres undefined) had an RP-LC retention time of 723 s.

As to `Cn1nc(-c2cccc(NC(=O)c3cccs3)c2)ccc1=O`, the RP-LC retention time turned out to be 678 s.

For the compound `CCOC(=O)C1CCN(C(=O)c2nc(N3CCCC3)c3c(C)cc(C)nc3n2)CC1`, the RP-LC retention time is 631 s.

On to `N#Cc1ccc(C(=O)N2CCC(c3cc(N)on3)CC2)cc1`, for which the RP-LC retention time is 641 s.

On to `COc1ccccc1-c1noc(Cn2cnc3c(cnn3-c3ccc(Cl)cc3)c2=O)n1`, for which the RP-LC retention time turned out to be 1010 s.

Regarding `O=C(NCCC1=CCCCC1)C(=O)NCCN1CCN(c2ccc(F)cc2)CC1`, the RP-LC retention time is 633 s.

In the case of `O=C(NCCCc1ccccc1)C1CCN(c2cnn(Cc3ccccc3)c(=O)c2)CC1`, the RP-LC retention time is 818 s.

In turn, `CCCNC(=O)C1CCCN(c2ccc(SCC(=O)NCc3ccc(C)c(C)c3)nn2)C1` (centres undefined) gave an RP-LC retention time of 698 s.

Consider `O=C1NCC(=O)N2CC3(CCN(C(=O)C4CCCCC4)CC3)CC12` (centres undefined), for which the RP-LC retention time is 624 s.

Regarding `CCOC(=O)CNC(=O)N1CCCN(C2=NS(=O)(=O)C(c3ccc(C)cc3)=C2C)CC1`, the RP-LC retention time was determined as 743 s.

`O=C(CN1C(=O)NC2(CCCCC2)C1=O)Nc1cccc(Cl)c1` yielded an RP-LC retention time of 815 s.

Consider `Cc1cc(C)c(C)c(S(=O)(=O)N2CCCC2c2nc(-c3cccc(F)c3)no2)c1C` (centres undefined), for which the RP-LC retention time was 1360 s.

`CCN1c2ccc(C)cc2C(=O)NC12CCN(C(=O)c1cccc(Cl)c1)CC2`: the RP-LC retention time came out at 603 s.

As to `COCCNC(=O)c1ccc(-c2nc(CSc3ccccc3)c(C)o2)cc1`, the RP-LC retention time stood at 882 s.

Compound `O=C(Cc1csc(SCC(=O)c2cccs2)n1)NCCc1c[nH]c2ccccc12` returned an RP-LC retention time of 806 s.

For the compound `COc1ccc2nc(C(=O)NCc3ccccc3C)cn2n1`, the RP-LC retention time worked out at 843 s.

`O=C(NCc1ccc(F)cc1)Nc1c(-c2ccccc2)nc2ccccn12` returned an RP-LC retention time of 639 s.

In turn, `CC(C)(C)NC(=O)N1CCCN(C2CCN(Cc3ccccc3)C2=O)CC1` (centres undefined) yielded an RP-LC retention time of 618 s.

Compound `O=C(NC1CC1)[C@@H]1C[C@H](Oc2ccccc2)CN1C(=O)C1CC=CC1` showed an RP-LC retention time of 755 s.
